tested on: Ovariectomized rats; experiment: Vaginal keratinization test on ovariectomized rats (Example C.2); type: in vivo; conditions: estradiol undecylate induced keratinization, per os once daily on days 1-3, active dose = 50% of rats show complete suppression
From the text: The property to delay the metabolism of retinoic acid can be evidenced in various in vitro and in vivo experiments. A particular in vitro procedure is described in example C.1 and tests the inhibitory activity of the compounds of formula (I) on the metabolism of retinoic acid in human breast cancer cells. The compounds of the present invention were also effective in suppressing induced vaginal keratinization effects in ovariectomized rats as is described in example C.2.
“Vaginal Keratinization Test on Ovariectomized Rats”
Ovariectomized rats were injected subcutaneously with a sesame oil solution containing 100 μg of estradiol undecylate in a volume of 0.1 ml per 100 g body weight and control animals were injected with sesame oil. On day one, two and three, test animals were treated once daily with a per os dose of the test compound and control animals with the drug vehicle (PEG 200). One day after the last treatment, the animals were sacrificed and their vaginas were processed for histological evaluation according to the method described in J. Pharmacol. Exp. Ther. 261(2), 773–779 (1992). A dose at which 50% of the tested rats show complete suppression of the estradiol undecylate induced keratinization effects is defined as an active dose. Table 23 lists the lowest active dose (LAD in mg/kg) of the compounds of formula (I) which were tested.

Structure (SMILES) | LAD (lowest active dose) [mg/kg]
COc1cc(CC(=O)Nc2ccc(C(C(C)N(C)C)n3ccnc3)cc2)ccc1Cl (single isomer, unassigned) [Compound 310] | 2.50
COc1ccc(CC(=O)Nc2ccc(C(C(C)N(C)C)n3ccnc3)cc2)cc1C (single isomer, unassigned) [Compound 312] | >2.50
COc1cc(CC(=O)Nc2ccc(C(C(C)N(C)C)n3ccnc3)cc2)ccc1C (single isomer, unassigned) [Compound 314] | >2.50
COc1cc(CC(=O)Nc2ccc(C(C(C)N(C)C)n3ccnc3)cc2)ccc1C (single isomer, unassigned) [Compound 315] | >2.50
CC(C(c1ccc(NC(=O)Cc2ccc(N(C)C)cc2)cc1)n1ccnc1)N(C)C (single isomer, unassigned) [Compound 317] | >5.00
COc1ccc(CC(=O)Nc2ccc(C(C(C)N(C)C)n3ccnc3)cc2)cc1OC (single isomer, unassigned) [Compound 318] | >2.50
CCCCOc1ccc(CC(=O)Nc2ccc(C(C(C)N(C)C)n3ccnc3)cc2)cc1 (single isomer, unassigned) [Compound 319] | >5.00
CCCCOc1ccc(CC(=O)Nc2ccc(C(C(C)N(C)C)n3ccnc3)cc2)cc1 (single isomer, unassigned) [Compound 320] | 5.00
CC(C(c1ccc(NC(=O)Cc2ccc3c(c2)OCCO3)cc1)n1cncn1)N(C)C (single isomer, unassigned) [Compound 322] | >2.50
COc1ccc(C(=O)Nc2ccc(C(C(C)N(C)C)n3cncn3)cc2)cc1OC (single isomer, unassigned) [Compound 324] | >2.50
CC(C(c1ccc(NC(=O)Cc2ccc3c(c2)OCO3)cc1)n1cncn1)N(C)C (single isomer, unassigned) [Compound 325] | 2.50
COc1ccc(CCCC(=O)Nc2ccc(C(C(C)N(C)C)n3cncn3)cc2)cc1OC (single isomer, unassigned) [Compound 326] | >2.50
COc1ccc(C(=O)Nc2ccc(C(C(C)N(C)C)n3cncn3)cc2)cc1OC (single isomer, unassigned) [Compound 327] | >2.50
COc1ccc(CCC(=O)Nc2ccc(C(C(C)N(C)C)n3cncn3)cc2)cc1OC (single isomer, unassigned) [Compound 328] | >2.50
COc1ccc(CCCC(=O)Nc2ccc(C(C(C)N(C)C)n3cncn3)cc2)cc1OC (single isomer, unassigned) [Compound 329] | >2.50
CC(C(c1ccc(NC(=O)Cc2ccc3c(c2)OCCO3)cc1)n1cncn1)N(C)C (single isomer, unassigned) [Compound 333] | >2.50
CC(C(c1ccc(NC(=O)Cc2ccc3c(c2)OCO3)cc1)n1ccnc1)N(C)C (single isomer, unassigned) [Compound 337] | 2.50
CC(C(c1ccc(NC(=O)Cc2ccc3c(c2)OCCO3)cc1)n1ccnc1)N(C)C (single isomer, unassigned) [Compound 338] | >2.50
CC(C(c1ccc(NC(=O)Cc2ccc3c(c2)OCO3)cc1)n1ccnc1)N(C)C (single isomer, unassigned) [Compound 340] | 2.50
COc1ccc(C(=O)Nc2ccc(C(C(C)N(C)C)n3ccnc3)cc2)cc1OC (single isomer, unassigned) [Compound 341] | >2.50
COc1ccc(C(=O)Nc2ccc(C(C(C)N(C)C)n3ccnc3)cc2)cc1OC (single isomer, unassigned) [Compound 342] | >2.50
CC(C(c1ccc(NC(=O)Oc2ccccc2)cc1)n1ccnc1)N(C)C (single isomer, unassigned) [Compound 343] | >2.50
CC(C(c1ccc(NC(=O)N2CCN(C)CC2)cc1)n1ccnc1)N(C)C (single isomer, unassigned) [Compound 347] | >5.00
CC(C(c1ccc(NC(=O)N2CCN(C)CC2)cc1)n1ccnc1)N(C)C (single isomer, unassigned) [Compound 349] | >2.50
COc1ccccc1OCC(=O)Nc1ccc(C(C(C)N(C)C)n2ccnc2)cc1 (single isomer, unassigned) [Compound 350] | >2.50
CCCC(C)C(c1ccc(NC(=O)Cc2ccc(Cl)cc2)cc1)n1ccnc1 (single isomer, unassigned) [Compound 374] | 2.50

Structure (SMILES) | LAD (lowest active dose) [mg/kg]
COc1ccc(CC(=O)Nc2ccc(C(C(C)N(C)C)n3ccnc3)cc2)cc1OC (single isomer, unassigned) [Compound 379] | >2.50
CCOC(=O)C(C)C(c1ccc(NC(=O)Cc2ccc(OC)c(OC)c2)cc1)n1ccnc1 (single isomer, unassigned) [Compound 381] | >2.50
CCCCCC(C)C(c1ccc(NC(=O)Cc2ccc(OC)c(OC)c2)cc1)n1ccnc1 (single isomer, unassigned) [Compound 384] | >2.50
CCN(CC)C(C)C(c1ccc(NC(=O)Cc2ccc(OC)c(OC)c2)cc1)n1ccnc1 (single isomer, unassigned) [Compound 387] | >2.50
COc1ccc(CC(=O)Nc2ccc(C(C(C)CN3CCCCC3)n3ccnc3)cc2)cc1OC (single isomer, unassigned) [Compound 390] | >2.50
COc1ccc(CC(=O)Nc2ccc(C(C(C)CN(C)C)n3ccnc3)cc2)cc1OC (single isomer, unassigned) [Compound 391] | >5.00
COc1ccc(CC(=O)Nc2ccc(C(C(C)CN(C)C)n3ccnc3)cc2)cc1OC (single isomer, unassigned) [Compound 392] | >5.00
COc1ccc(CC(=O)Nc2ccc(C(C(C)N(C)Cc3ccccc3)n3ccnc3)cc2)cc1OC (single isomer, unassigned) [Compound 396] | >2.50
COc1ccc(CC(=O)Nc2ccc(C(C(C)N(C)Cc3ccccc3)n3ccnc3)cc2)cc1OC (single isomer, unassigned) [Compound 398] | >5.00
CNC(C)C(c1ccc(NC(=O)Cc2ccc(OC)c(OC)c2)cc1)n1ccnc1.O (single isomer, unassigned) [Compound 401] | >2.50
CCCCN(C)C(C)C(c1ccc(NC(=O)Cc2ccc(OC)c(OC)c2)cc1)n1ccnc1 (single isomer, unassigned) [Compound 406] | >5.00
COc1ccc(CC(=O)Nc2ccc(C(C(C)N(C)CCN(C)C)n3ccnc3)cc2)cc1OC (single isomer, unassigned) [Compound 407] | >5.00
COc1ccc(CC(=O)Nc2ccc(C(C(C)N3CCOCC3)n3ccnc3)cc2)cc1OC (single isomer, unassigned) [Compound 408] | >5.00
COc1ccc(CC(=O)Nc2ccc(C(C(C)N3CCOCC3)n3ccnc3)cc2)cc1OC (single isomer, unassigned) [Compound 409] | 5.00
COc1ccc(CC(=O)Nc2ccc(C(C3CCCN(C)C3)n3ccnc3)cc2)cc1OC (single isomer, unassigned) [Compound 410] | >5.00
COc1ccc(CC(=O)Nc2ccc(C(C3CCCCN3C)n3ccnc3)cc2)cc1OC (single isomer, unassigned) [Compound 411] | 2.50
CCCN(C)C(C)C(c1ccc(NC(=O)Cc2ccc(OC)c(OC)c2)cc1)n1ccnc1 (single isomer, unassigned) [Compound 414] | 5.00
COc1ccc(CC(=O)Nc2ccc(C(C(C)OC(=O)N(Cc3ccccc3)Cc3ccccc3)n3ccnc3)cc2)cc1OC (single isomer, unassigned) [Compound 417] | >5.00
COc1ccc(CC(=O)Nc2ccc(C(C(C)N(Cc3ccccc3)Cc3ccccc3)n3ccnc3)cc2)cc1OC (single isomer, unassigned) [Compound 419] | >5.00
COc1cc(CC(=O)Nc2ccc(C(C(C)N(C)C)n3ccnc3)cc2)cc(OC)c1OC (single isomer, unassigned) [Compound 428] | >2.50
COc1ccc(CCC(=O)Nc2ccc(C(C(C)N(C)C)n3ccnc3)cc2)cc1OC (single isomer, unassigned) [Compound 429] | >2.50
COc1ccc(CCCC(=O)Nc2ccc(C(C(C)N(C)C)n3ccnc3)cc2)cc1OC.O=C(O)C(=O)O (single isomer, unassigned) [Compound 431] | >2.50
COc1ccc(CC(=O)N(C)c2ccc(C(C(C)N(C)C)n3cncn3)cc2)cc1OC (single isomer, unassigned) [Compound 437] | >2.50
COc1ccc(CC(=O)N(C)c2ccc(C(C(C)N(C)C)n3cncn3)cc2)cc1OC (single isomer, unassigned) [Compound 438] | >2.50
COc1ccc(CC(=O)N(C)c2ccc(C(C(C)N(C)C)n3ccnc3)cc2)cc1OC (single isomer, unassigned) [Compound 439] | >2.50

From patent publication US7179825B2, “Retinoic acid mimetic anilides” (Janssen Pharmaceutica N.V., priority 1997, dated 2007)
